Experimental data as given in BindingDB's records for PubMed 37981443 (National Clinical Research Center for Geriatrics).

Assays:
[1] = target: 1-phosphatidylinositol 3-phosphate 5-kinase (Homo sapiens, UniProt Q9Y2I7); assay: Inhibition of N-terminal His-tagged human PIKfyve expressed in Sf9 insect cells incubated for 1 hr by enzyme assay
[2] = target: Procathepsin L (Homo sapiens, UniProt P07711); assay: Inhibition of Cathepsin L (unknown origin)
Procathepsin L, sequence (P07711 whole entry): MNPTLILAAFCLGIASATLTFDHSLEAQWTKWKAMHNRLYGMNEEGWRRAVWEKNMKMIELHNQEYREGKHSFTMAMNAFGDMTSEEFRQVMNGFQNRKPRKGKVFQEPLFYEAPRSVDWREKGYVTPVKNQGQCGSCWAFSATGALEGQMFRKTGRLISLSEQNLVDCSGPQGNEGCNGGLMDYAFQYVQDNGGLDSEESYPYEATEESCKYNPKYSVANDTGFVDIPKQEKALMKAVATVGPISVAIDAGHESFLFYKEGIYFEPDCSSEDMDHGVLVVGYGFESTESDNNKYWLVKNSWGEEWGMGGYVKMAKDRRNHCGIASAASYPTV

1-phosphatidylinositol 3-phosphate 5-kinase, sequence (Q9Y2I7 whole entry): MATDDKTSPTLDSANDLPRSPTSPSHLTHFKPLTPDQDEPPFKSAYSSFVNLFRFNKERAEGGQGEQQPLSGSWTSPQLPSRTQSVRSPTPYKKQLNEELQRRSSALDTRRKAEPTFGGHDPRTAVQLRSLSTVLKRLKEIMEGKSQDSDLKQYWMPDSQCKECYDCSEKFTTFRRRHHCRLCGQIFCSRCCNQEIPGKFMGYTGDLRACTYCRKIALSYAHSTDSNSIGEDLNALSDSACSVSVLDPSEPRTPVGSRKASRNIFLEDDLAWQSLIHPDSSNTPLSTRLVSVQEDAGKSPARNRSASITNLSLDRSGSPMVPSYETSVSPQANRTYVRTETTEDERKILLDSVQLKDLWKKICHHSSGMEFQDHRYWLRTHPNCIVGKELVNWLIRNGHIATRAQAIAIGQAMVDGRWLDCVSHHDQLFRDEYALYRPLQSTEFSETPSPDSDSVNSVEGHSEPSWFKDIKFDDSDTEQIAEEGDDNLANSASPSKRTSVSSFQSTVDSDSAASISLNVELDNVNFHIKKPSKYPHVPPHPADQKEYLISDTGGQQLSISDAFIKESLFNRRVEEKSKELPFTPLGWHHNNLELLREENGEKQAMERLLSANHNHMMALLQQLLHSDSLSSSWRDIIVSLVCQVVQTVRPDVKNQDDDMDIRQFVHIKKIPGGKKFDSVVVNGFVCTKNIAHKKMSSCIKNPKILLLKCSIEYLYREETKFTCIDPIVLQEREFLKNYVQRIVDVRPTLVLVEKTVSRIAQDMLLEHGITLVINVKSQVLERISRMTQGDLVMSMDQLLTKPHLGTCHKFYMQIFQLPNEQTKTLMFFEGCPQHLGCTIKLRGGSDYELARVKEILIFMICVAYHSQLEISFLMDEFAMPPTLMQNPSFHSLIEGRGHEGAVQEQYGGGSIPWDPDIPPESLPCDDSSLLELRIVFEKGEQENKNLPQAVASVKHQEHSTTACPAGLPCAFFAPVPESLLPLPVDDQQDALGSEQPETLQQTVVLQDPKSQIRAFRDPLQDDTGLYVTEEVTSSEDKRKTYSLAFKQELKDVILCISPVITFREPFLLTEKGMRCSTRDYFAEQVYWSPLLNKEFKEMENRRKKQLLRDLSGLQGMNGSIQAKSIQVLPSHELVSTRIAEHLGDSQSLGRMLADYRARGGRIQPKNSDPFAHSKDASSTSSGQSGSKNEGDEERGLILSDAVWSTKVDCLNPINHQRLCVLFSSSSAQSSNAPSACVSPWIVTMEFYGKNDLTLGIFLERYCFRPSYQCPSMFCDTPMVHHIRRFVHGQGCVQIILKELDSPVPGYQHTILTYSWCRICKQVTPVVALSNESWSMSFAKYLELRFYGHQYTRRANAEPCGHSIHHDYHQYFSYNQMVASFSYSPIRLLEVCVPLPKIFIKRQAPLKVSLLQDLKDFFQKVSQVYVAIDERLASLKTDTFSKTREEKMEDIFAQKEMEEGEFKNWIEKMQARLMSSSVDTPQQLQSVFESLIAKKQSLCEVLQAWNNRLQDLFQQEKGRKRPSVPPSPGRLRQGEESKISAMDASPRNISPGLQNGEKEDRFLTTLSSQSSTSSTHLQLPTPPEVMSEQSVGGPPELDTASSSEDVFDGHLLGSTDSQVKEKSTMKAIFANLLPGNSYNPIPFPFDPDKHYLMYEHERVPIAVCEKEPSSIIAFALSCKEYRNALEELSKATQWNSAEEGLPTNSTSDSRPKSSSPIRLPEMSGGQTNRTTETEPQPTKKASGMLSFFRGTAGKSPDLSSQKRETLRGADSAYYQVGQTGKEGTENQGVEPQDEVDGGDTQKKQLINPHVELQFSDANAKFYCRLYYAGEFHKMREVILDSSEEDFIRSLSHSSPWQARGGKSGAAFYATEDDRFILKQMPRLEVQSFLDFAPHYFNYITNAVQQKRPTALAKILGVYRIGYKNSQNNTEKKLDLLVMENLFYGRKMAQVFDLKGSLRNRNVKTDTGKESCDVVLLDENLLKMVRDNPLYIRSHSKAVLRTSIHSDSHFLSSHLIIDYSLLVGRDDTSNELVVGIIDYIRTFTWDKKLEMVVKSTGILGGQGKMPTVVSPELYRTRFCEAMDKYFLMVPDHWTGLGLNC

Structure (SMILES)	IC50 [1]	IC50 [2]
COc1ccc2[nH]c(C)c(/C=C/C(=O)c3ccncc3)c2c1	5.1 nM	–
CCCC[C@@H](C=O)NC(=O)[C@H](CC(C)C)NC(=O)OCc1ccccc1 [[(S)-1-((S)-1-Formyl-pentylcarbamoyl)-3-methyl-butyl]-carbamic acid benzyl ester]	–	44 nM
